Data: US20230183259A1, “Crystal Form Of Thiofuran Pyridazine Compound, Preparation Method Therefor And Application Thereof” (ZHEJIANG MEDICINE CO., LTD. XINCHANG PHARMACEUTICAL FACTORY, priority 2020, published 2023)

How the values were obtained:
[1] = acceleration test (stability); type: physicochemical; details: 40° C.±2° C., relative humidity 75%±5%
Description: (§1) Stability tests were performed on the samples of Examples 1, 2, 3, 4 and 5. […] Please refer to the results of the acceleration test (40° C.±2° C., relative humidity 75%±5%) of Table 1 and the results of the long-term stability test (25° C.±2° C., relative humidity 60%±10%) of Table 2.

[2] = long-term stability test; type: physicochemical; details: 25° C.±2° C., relative humidity 60%±10%
Description: as §1

(S)-2-(4-fluorophenyl)-4-(piperidine-3-aminomethyl)thieno[2,3-d]pyridazine-7-carboxamide hydrochloride [Example 110601-3]
0.08%: Enantiomer (%) ([1]; 6 months, hydrochloride) | Enantiomers (%) ([2]; 6 months, hydrochloride) | Enantiomers (%) ([2]; 12 months, hydrochloride) | Enantiomers (%) ([2]; 24 months)
101.1%: Content (calculated by dried product )(%) ([2]; 18 months, hydrochloride)
0.31%: Total relevant substances (%) ([2]; 18 months, hydrochloride)
99.9%: content(%) ([1]; 3 months, hydrochloride) | Content (calculated by dried product )(%) ([2]; 12 months, hydrochloride)
0.1%: Enantiomer (%) ([1]; 2 months, hydrochloride)
100.2%: Content (calculated by dried product )(%) ([2]; 3 months, hydrochloride)
0.25%: Impurity A (%) ([1]; 1 month, hydrochloride) | Impurity A (%) ([1]; 3 months, hydrochloride) | ImpurityA(%) ([2]; 6 months, hydrochloride) | ImpurityA(%) ([2]; 9 months, hydrochloride) | ImpurityA(%) ([2]; 12 months, hydrochloride) | ImpurityA(%) ([2]; 18 months, hydrochloride) | ImpurityA(%) ([2]; 24 months, hydrochloride)
0.11%: Enantiomer (%) ([1]; 1 month, hydrochloride)
0.38%: Total relevant substances (%) ([1]; 2 months, hydrochloride) | Total relevant substances (%) ([2]; 9 months, hydrochloride)
100.0%: content(%) ([1]; 1 month, hydrochloride)
7.3%: Loss on drying (%) ([2]; 12 months, hydrochloride) | Loss on drying (%) ([2]; 24 months, hydrochloride)
7.0%: Loss on drying (%) ([2]; 36 months, hydrochloride)
99.7%: content(%) ([1]; 6 months, hydrochloride) | Content (calculated by dried product )(%) ([2]; 36 months, hydrochloride)
98.6%: Content (calculated by dried product )(%) ([2]; 24 months, hydrochloride)
7.2%: Loss on drying (%) ([1]; 0 month, hydrochloride) | Loss on drying (%) ([1]; 1 month, hydrochloride) | Loss on drying (%) ([1]; 2 months, hydrochloride) | Loss on drying (%) ([1]; 3 months, hydrochloride) | Loss on drying (%) ([2]; 0 month, hydrochloride) | Loss on drying (%) ([2]; 6 months, hydrochloride) | Loss on drying (%) ([2]; 9 months, hydrochloride)
0.09%: Enantiomer (%) ([1]; 0 month, hydrochloride) | Enantiomer (%) ([1]; 3 months, hydrochloride) | Enantiomers (%) ([2]; 0 month, hydrochloride) | Enantiomers (%) ([2]; 3 months, hydrochloride) | Enantiomers (%) ([2]; 9 months, hydrochloride)
0.37%: Total relevant substances (%) ([1]; 0 month, hydrochloride) | Total relevant substances (%) ([2]; 0 month, hydrochloride)
99.5%: Content (calculated by dried product )(%) ([2]; 9 months, hydrochloride)
0.02%: Impurity C (%) ([1]; 0 month, hydrochloride) | Impurity C (%) ([1]; 1 month) | Single largest impurity (%) ([1]; 1 month, hydrochloride) | Impurity C (%) ([1]; 2 months, hydrochloride) | Impurity C (%) ([1]; 3 months) | Single largest impurity (%) ([1]; 3 months, hydrochloride) | Impurity C (%) ([1]; 6 months) | Single largest impurity (%) ([1]; 6 months, hydrochloride) | ImpurityC(%) ([2]; 0 month, hydrochloride) | ImpurityC(%) ([2]; 3 months) | ImpurityC(%) ([2]; 6 months, hydrochloride) | ImpurityC(%) ([2]; 9 months) | Single largest impurity (%) ([2]; 9 months, hydrochloride) | Single largest impurity (%) ([2]; 12 months) | Single largest impurity (%) ([2]; 18 months) | ImpurityC(%) ([2]; 24 months) | Single largest impurity (%) ([2]; 24 months) | ImpurityC(%) ([2]; 36 months) | Single largest impurity (%) ([2]; 36 months)
0.39%: Total relevant substances (%) ([1]; 1 month, hydrochloride)
0.35%: Total relevant substances (%) ([2]; 3 months, hydrochloride) | Total relevant substances (%) ([2]; 6 months, hydrochloride) | Total relevant substances (%) ([2]; 12 months, hydrochloride)
99.6%: content(%) ([1]; 0 month, hydrochloride) | Content (calculated by dried product )(%) ([2]; 0 month, hydrochloride) | Content (calculated by dried product )(%) ([2]; 6 months, hydrochloride)
0.33%: Total relevant substances (%) ([1]; 3 months, hydrochloride)
unchanged: Crystal form ([1]; 0 month) | Crystal form ([1]; 1 month) | Crystal form ([1]; 2 months) | Crystal form ([1]; 3 months) | Crystal form ([1]; 6 months) | Crystal form ([2]; 0 month) | Crystal form ([2]; 3 months) | Crystal form ([2]; 6 months) | Crystal form ([2]; 9 months) | Crystal form ([2]; 12 months) | Crystal form ([2]; 18 months) | Crystal form ([2]; 24 months) | Crystal form ([2]; 36 months)
0.03%: (%) Impurity B (%) ([1]; 1 month, hydrochloride) | (%) Impurity B (%) ([1]; 2 months, hydrochloride) | Single largest impurity (%) ([1]; 2 months, hydrochloride) | Single largest impurity (%) ([2]; 3 months, hydrochloride) | Single largest impurity (%) ([2]; 6 months, hydrochloride) | ImpurityC(%) ([2]; 12 months, hydrochloride) | ImpurityC(%) ([2]; 18 months, hydrochloride)
0.34%: Total relevant substances (%) ([2]; 24 months, hydrochloride)
0.00%: (%) Impurity B (%) ([1]; 0 month) | (%) Impurity B (%) ([1]; 3 months) | (%) Impurity B (%) ([1]; 6 months) | ImpurityB(%) ([2]; 0 month) | ImpurityB(%) ([2]; 3 months) | ImpurityB(%) ([2]; 6 months) | ImpurityB(%) ([2]; 18 months) | ImpurityB(%) ([2]; 24 months)
0.28%: Impurity A (%) ([1]; 0 month, hydrochloride) | Total relevant substances (%) ([1]; 6 months, hydrochloride) | ImpurityA(%) ([2]; 0 month, hydrochloride)
0.01%: Single largest impurity (%) ([1]; 0 month, hydrochloride) | Single largest impurity (%) ([2]; 0 month, hydrochloride) | ImpurityB(%) ([2]; 9 months, hydrochloride) | ImpurityB(%) ([2]; 12 months) | ImpurityB(%) ([2]; 36 months, hydrochloride)
98.2%: content(%) ([1]; 2 months, hydrochloride)
7.1%: Loss on drying (%) ([1]; 6 months, hydrochloride) | Loss on drying (%) ([2]; 3 months, hydrochloride) | Loss on drying (%) ([2]; 18 months, hydrochloride)
0.21%: Impurity A (%) ([1]; 6 months, hydrochloride)
0.06%: Enantiomers (%) ([2]; 18 months, hydrochloride) | Enantiomers (%) ([2]; 36 months, hydrochloride)
0.26%: Impurity A (%) ([1]; 2 months, hydrochloride) | ImpurityA(%) ([2]; 3 months, hydrochloride) | ImpurityA(%) ([2]; 36 months, hydrochloride)
yellow crystalline powder: appearance ([1]; 0 month) | appearance ([1]; 1 month) | appearance ([1]; 2 months) | appearance ([1]; 3 months) | appearance ([1]; 6 months) | appearance ([2]; 0 month, hydrochloride) | appearance ([2]; 3 months, hydrochloride) | appearance ([2]; 6 months, hydrochloride) | appearance ([2]; 9 months, hydrochloride) | appearance ([2]; 12 months, hydrochloride) | appearance ([2]; 18 months, hydrochloride) | appearance ([2]; 24 months, hydrochloride) | appearance ([2]; 36 months, hydrochloride)
0.36%: Total relevant substances (%) ([2]; 36 months, hydrochloride)
